According to US20130252945A1, “AMORPHOUS BIOINORGANIC IONIC LIQUID COMPOSITIONS COMPRISING PHARMACEUTICALS” (priority 2012, published 2013):
Several values for one entry are separate records, joined by “and”; a condition that tells them apart may be missing. Equal entries are not always repeated. Structures can show the parent of a compound that is named as a salt.

Columns and labels:
[1] = Storage under Ar, observation for crystalline domains over 6 months; format: physicochemical; conditions: stored under Ar, observed over 6 months
[2] = Decomposition temperature by TGA; format: physicochemical; conditions: for Tdec (decomposition temperature): TGA under N2, 20° C. per minute
Procedure: (§1) Melting points of all purchased materials were determined in a capillary tube using a MeI-Temp apparatus (Barnstead/Thermo Scientific). NMR data sets were collected on a 300 MHz Bruker instrument using sample concentrations of 50 mM. Infrared spectra were measured using an Avatar 360 FT-IR ESP (ThermoElectron-Nicolet, Waltham, Mass.) equipped with a Smart DuraSamplIR horizontal attenuated total reflectance (HATR) accessory. Raman spectra were measured using a Thermo-Nicolet 470 FTIR with Nd:YAG laser excitation and HgCdTe detector. Viscosity was measured on 1 mL samples with a Viscolab 3000 viscometer (Cambridge Viscosity, Medford, Mass.). Samples were heated to 90° C., except when otherwise specified, and viscosity was recorded in 2 degree increments between 50 and 90° C. with 8 min equilibration at each temperature. Thermal characterization was carried out using a Q100 DSC and a Q500 TGA (both from TA Instruments, New Castle, Del.). DSC was performed using a 5-10 mg sample in a 40 μL aluminum crucible sealed in the glovebox. A temperature range from −60 to 150° C. was scanned twice, at ramp rates of 5° C./min and 10° C./min. TGA was performed under N2 atmosphere over a temperature range from 25-800° C. with a ramp rate of 20° C. per minute and a sample size of 10 mg.

[3] = test system: Pseudomonas aeruginosa biofilms (clinical isolate from sputum); test: Challenge of established biofilms (72 h) with test compound, CFU count; format: cell-based; conditions: 6 h at 37° C.
[4] = Solubility in solvents (soluble / insoluble); conditions: organic solvent or mixture
[5] = test system: Staphylococcus aureus culture; test: Biofilm growth on IL-coated culture plates; format: cell-based; conditions: 100 μL IL per well, counted after 72 h, limit of detection
Procedure: (§2) A second example of clear, colorless antimicrobial films formed by compositions described herein was shown with an assay that involved coating culture plates with IL and observing the biofilm growth on the coated surface. […] Aliquots of 100 μL of either a Staphylococcus aureus culture, an E. coli culture, or a Pseudomonas aeruginosa culture were added to each coated well, the plate was fed with fresh media every 24 h, and cells were counted after 72 h, as described above. The number of cells in the treated wells was below the limit of detection of the assay of 1000 cfu/mL, as compared with normal cell counts for the LB control wells, indicating high antimicrobial efficacy of the IL coating. Because bacteria colonize a surface prior to barnacles and other organisms, proof of antibacterial effects is key to showing anti-biofouling potential in aquatic environments.

[6] = test system: E. coli culture; test: Biofilm growth on IL-coated culture plates; format: cell-based; conditions: 100 μL IL per well, counted after 72 h, limit of detection
Procedure: as §2

[7] = test system: Pseudomonas aeruginosa culture; test: Biofilm growth on IL-coated culture plates; format: cell-based; conditions: 100 μL IL per well, counted after 72 h, limit of detection
Procedure: as §2

[8] = format: physicochemical; conditions: 3 h incubation at a constant 120° C.
[9] = Shelf life by model-free isoconversional kinetic analysis of TGA data; format: physicochemical
Procedure: Zinc(II) chloride (273 mg, 2 mmol) was added to a scintillation vial that had been heated, then cooled under vacuum and charged with dry argon. Phenoxybenzamine hydrochloride (340.3 mg, 1 mmol) was added to the vial with a stir bar and the mixture was degassed with stirring at 60° C. The vial was filled with argon, sealed with a cap, and stirred for 24 h at 80° C. to produce a clear, colorless glass. […] NMR spectra for ^1H and ^13C were obtained in d6-acetone. […] Spectra of phenoxybenzamine-HCl were performed with 0, 0.25, 0.5, 1.0, 1.5, 2.0, and 5.0 molar equivalents of ZnCl2 to observe this effect. Thermal decomposition after a 3 h incubation of the IL at a constant 120° C. was 2.7% of the starting mass. In contrast, the phenoxybenzamine hydrochloride starting material loses 38% of its mass after a similar incubation. The IL was soluble (>1 mM) in acetone, water and phosphate buffered to pH 6.0. The IL was insoluble (<1 mM) in toluene and tetrahydrofuran. […] The manufacturer's shelf life for 10 mg phenoxybenzamine hydrochloride tablets is 2 years, or 730 days, and the calculated value for solid phenoxybenzamine hydrochloride (5% decay at 20° C.) was 750 days (2.05 years), indicating good agreement of the calculation with actual shelf life. […]

[10] = Solubility at 1 mM in unbuffered water by eye and UV-Vis after filtration; format: physicochemical; conditions: unbuffered water (pH 6.5), by eye
Procedure: Solubility of phenoxybenzamine hydrochloride and phenoxybenzamine-HCl—(ZnCl2)2 at 1 mM in unbuffered water (pH 6.5) was evaluated by eye and by UV-Vis spectroscopy after filtration through a 0.45 μm syringe filter.

[11] = Viscosity (Viscolab 3000 viscometer); format: physicochemical; conditions: at 90° C.
Procedure: as §1

## CNC(=C[N+](=O)[O-])NCCSCc1ccc(CN(C)C)o1.Cl.[Cl][Zn][Cl].[Cl][Zn][Cl]
[1]
  appearance of crystalline domains on storage: no crystalline domains appeared
[2]
  Tdec (decomposition temperature): 230.9 °C

## CCCC[N+]1(C)CCCC1.O=S(=O)([N-]S(=O)(=O)C(F)(F)F)C(F)(F)F [BMP-NTf2, 1-butyl-1-methypyrrolidinium bistriflimide]
[3]; neat
  cell count of biofilm after challenge: 2×10^5

## CN1[C@@H]2CC[C@H]1CC(OC(=O)C(O)c1ccccc1)C2 (stereo partly drawn) [Homatropine-HCl—(ZnCl2)2]
[1]
  appearance of crystalline domains on storage: no crystalline domains appeared
[2]; TGA
  ΔTdec (increase in decomposition temperature relative to HCl starting material): +7.8 °C
[4]; dimethylsulfoxide
  solubility: > 1000 µM
[4]; toluene
  solubility: < 1000 µM

## CN(C)CCCN1c2ccccc2CCc2ccccc21.Cl.[Cl][Zn][Cl].[Cl][Zn][Cl] [Imipramine-HCl—(ZnCl2)2]
[1]
  appearance of crystalline domains on storage: no crystalline domains appeared

## [Cl-].[Na+] [NaCl]
[3]; 5 M in LB, control for ionic strength
  cell count of biofilm after challenge: 1×10^6 cells

## [Cl-].[Cl-].[Zn+2] [ZnCl2, Zinc(II) chloride]
[3]; 1.8 M in LB
  cell count of biofilm after challenge: 4×10^5

## CC(C)(C)CC(C)(C)c1ccc(OCCOCC[N+](C)(C)Cc2ccccc2)cc1 [benzethonium chloride, Benzethonium chloride]
[3]; 78 mM in LB, formed precipitate
  viable dispersed cell count (conservative estimate): ~5×10^4 cfu/mL

## CC(C)(C)CC(C)(C)c1ccc(OCCOCC[N+](C)(C)Cc2ccccc2)cc1 [benzethonium-Cl—(ZnCl2)2, Benzethonium-Cl—(ZnCl2)2]
[5]
  number of cells in treated (IL-coated) wells: < 1000 cfu/mL
[6]
  number of cells in treated (IL-coated) wells: < 1000 cfu/mL
[7]
  number of cells in treated (IL-coated) wells: < 1000 cfu/mL

## CC(COc1ccccc1)N(CCCl)Cc1ccccc1 (stereo not drawn) [phenoxybenzamine hydrochloride, Phenoxybenzamine hydrochloride, reference compound]
[8]
  thermal decomposition (loss of starting mass): 38%

## CC(COc1ccccc1)N(CCCl)Cc1ccccc1.Cl.[Cl][Zn][Cl].[Cl][Zn][Cl] (stereo not drawn) [phenoxybenzamine-HCl—(ZnCl2)2, Phenoxybenzamine-HCl—(ZnCl2)2]
[1]
  appearance of crystalline domains on storage: no crystalline domains appeared
[8]
  thermal decomposition (loss of starting mass): 2.7%
[9]; at 20° C., 5% decomposition
  improvement of shelf life over solid phenoxybenzamine hydrochloride: 7.7 fold
[9]; compared with 4-day refrigerator shelf life
  improvement of shelf life over standard formulation in syrup and propylene glycol: 1500 fold
[10]
  solubility in unbuffered water (appeared to completely dissolve): ≥ 1 mM and ≥ 0.34 mg/mL

## Ethambutol-(HCl)2—(ZnCl2)2
[1]
  appearance of crystalline domains on storage: no crystalline domains appeared
[11]
  Viscosity: 17350 cP

## Procainamide-HCl—(ZnCl2)2
[1]
  appearance of crystalline domains on storage: no crystalline domains appeared
[2]
  Tdec (decomposition temperature): 291.0 °C
